Test results reported in ChEMBL document CHEMBL5214890 (Eur J Med Chem, 2021).
Activity calls are given as the source filed them.

How the values were obtained:
[1] = AUC (inifinity) in male Sprague-Dawley rat at 25 nmol/kg, sc administered as single dose and measured after 24 hrs by LC-MS/MS analysis; type: ADME, organism-based; set-up: dose 25 nmol/kg, time 24 hrs, route sc; conditions: in vivo
[2] = Toxicity in male DIO mouse assessed as change in Cre at 100 nmol/kg, sc administered twice daily for 7 days; type: organism-based; conditions: in vivo, 168 h, time 7 day
[3] = Toxicity in male DIO mouse assessed as reduction in body weight at 100 nmol/kg, sc administered twice daily for 7 days; type: organism-based; set-up: scale not given: the % may be the effect or the level left; conditions: in vivo, 168 h, time 7 day
[4] = Toxicity in male db/db mouse assessed as reduction in body weight at 100 nmol/kg, sc administered twice daily for 7 days; type: organism-based; conditions: in vivo, 168 h, time 7 day
[5] = Half-life in male Sprague-Dawley rat at 25 nmol/kg, sc administered as single dose and measured after 24 hrs by LC-MS/MS analysis; type: ADME, organism-based; conditions: in vivo
[6] = Toxicity in male DIO mouse assessed as change in serum lipase at 100 nmol/kg, sc administered twice daily for 7 days; type: organism-based; conditions: in vivo, 168 h, time 7 day
[7] = Toxicity in male DIO mouse assessed as change in liver AST level at 100 nmol/kg, sc administered twice daily for 7 days; type: organism-based; conditions: in vivo, 168 h, time 7 day
[8] = Toxicity in male DIO mouse assessed as change in BUN at 100 nmol/kg, sc administered twice daily for 7 days; type: organism-based; conditions: in vivo, 168 h, time 7 day
[9] = Toxicity in male […] assessed as normalization of hepatic lipid content at 30 nmol/kg, sc administered twice daily for 3 weeks; type: organism-based; conditions: in vivo, 504 h
Mus musculus [10] = assay: Antidiabetic activity in 2 hrs fasted male C57BL/6J mouse at 10 to 30 nmol/kg, ip administered at 0 mins in presence of somatostatin at 10 mg/kg, sc administered at -30 mins and measured by oral glucose tolerance test; type: functional, organism-based; conditions: dose 10-30 nmol/kg
Mus musculus [11] = assay: Antidiabetic activity in male […] assessed as decrease in serum total cholesterol level at 30 nmol/kg, sc administered twice daily for 3 weeks; type: functional, organism-based
Mus musculus [12] = assay: Antidiabetic activity in DIO mouse assessed as reduction in blood glucose at 10 nmol/kg, ip pretreated with compound and followed by glucose challenge and measured by oral glucose tolerance test; type: functional, organism-based
Mus musculus [13] = assay: Antidiabetic activity in DIO mouse assessed as reduction in plasma insulin level at 10 nmol/kg, ip pretreated with compound and followed by glucose challenge and measured by oral glucose tolerance test; type: functional, organism-based
Mus musculus [14] = assay: Antidiabetic activity in non-fasted male db/db mouse assessed as reduction in glucose level at 10 to 100 nmol/kg, sc; type: functional, organism-based; conditions: dose 10-100 nmol/kg, DDE = dose-dependent effect
[15] = AUC (infinity) in male Sprague-Dawley rat at 25 nmol/kg, iv administered as single dose and measured after 24 hrs by LC-MS/MS analysis; type: ADME, organism-based; set-up: time 24 hrs, dose 25 nmol/kg, route iv; conditions: in vivo
Mus musculus [16] = assay: Antidiabetic activity in male db/db mouse assessed as increase in insulin IOD value at 30 nmol/kg, sc administered twice daily for 35 days; type: functional, organism-based; conditions: time 35.0 day
[17] = molecular target: Glucagon-like peptide 1 receptor (Homo sapiens, UniProt P43220); assay: Agonist activity at human GLP-1R expressed in HEK293 cells incubated for 30 mins and assessed as increase in cAMP accumulation measured by HTRF assay relative to control; type: functional, cell-based; set-up: concentration or dose not given beside the values; conditions: filed as agonist
[18] = Toxicity in male db/db mouse assessed as change in BUN at 100 nmol/kg, sc administered twice daily for 7 days; type: organism-based; conditions: in vivo, 168 h, time 7 day
Mus musculus [19] = assay: Antidiabetic activity in male DIO mouse assessed as decrease in cumulative food intake at 100 nmol/kg, sc administered twice daily for 7 days; type: functional, organism-based; conditions: time 7.0 day
Mus musculus [20] = assay: Antidiabetic activity in male […] assessed as reduction in body weight at 30 nmol/kg, sc administered twice daily for 3 weeks; type: functional; set-up: scale not given: the % may be the effect or the level left
Mus musculus [21] = assay: Antidiabetic activity in male […] assessed as reduction in fasted glucose level at 30 nmol/kg, sc administered twice daily for 3 weeks; type: functional, organism-based
Mus musculus [22] = assay: Antidiabetic activity in overnight fasted male C57BL/6J mouse at 10 nmol/kg, ip administered at -30 mins and measured by oral glucose tolerance test; type: functional, organism-based
[23] = Toxicity in male db/db mouse assessed as change in serum lipase at 100 nmol/kg, sc administered twice daily for 7 days; type: organism-based; conditions: in vivo, 168 h, time 7 day
Mus musculus [24] = assay: Antidiabetic activity in male db/db mouse assessed as reduction in food consumption at 30 nmol/kg, sc administered twice daily for 35 days; type: functional, organism-based; conditions: time 35.0 day
Mus musculus [25] = assay: Antidiabetic activity in male db/db mouse assessed as decrease in cumulative food intake at 100 nmol/kg, sc administered twice daily for 7 days; type: functional, organism-based; conditions: time 7.0 day
Mus musculus [26] = assay: Antidiabetic activity in male db/db mouse assessed as increase in islet area at 30 nmol/kg, sc administered twice daily for 35 days; type: functional, organism-based; conditions: time 35.0 day

Chain of Glucagon-like peptide 1 receptor (P43220 whole entry): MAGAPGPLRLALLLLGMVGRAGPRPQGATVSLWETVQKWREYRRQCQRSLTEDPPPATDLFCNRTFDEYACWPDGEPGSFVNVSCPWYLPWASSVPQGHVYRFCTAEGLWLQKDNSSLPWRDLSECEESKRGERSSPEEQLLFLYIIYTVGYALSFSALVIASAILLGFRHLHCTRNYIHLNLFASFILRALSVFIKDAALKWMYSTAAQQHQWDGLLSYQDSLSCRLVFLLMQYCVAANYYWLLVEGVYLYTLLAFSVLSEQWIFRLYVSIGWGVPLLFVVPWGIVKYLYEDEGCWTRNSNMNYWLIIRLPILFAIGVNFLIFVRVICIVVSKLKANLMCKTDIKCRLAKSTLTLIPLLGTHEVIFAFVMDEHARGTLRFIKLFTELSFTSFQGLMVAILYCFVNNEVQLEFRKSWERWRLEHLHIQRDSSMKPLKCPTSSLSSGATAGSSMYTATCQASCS

CCCCCCCCCCCCCCCC(=O)N[C@@H](CCC(=O)NCCCC[C@H](NC(=O)[C@H](Cc1ccc(O)cc1)NC(=O)[C@H](CCCCN)NC(=O)[C@H](CO)NC(=O)[C@@H](NC(=O)[C@H](CC(=O)O)NC(=O)[C@H](CC(N)=O)NC(=O)[C@@H](NC(=O)[C@H](Cc1ccc(O)cc1)NC(=O)[C@@H](NC(=O)CNC(=O)[C@H](CCC(N)=O)NC(=O)[C@@H](CO)NC(=O)[C@@H](N)Cc1c[nH]cn1)[C@@H](C)O)[C@@H](C)O)C(C)C)C(=O)N[C@@H](CC(=O)O)C(=O)N[C@@H](CO)C(=O)N[C@@H](CCCNC(=N)N)C(=O)N[C@@H](CCCNC(=N)N)C(=O)N[C@@H](C)C(=O)N[C@@H](CCC(N)=O)C(=O)N[C@@H](CC(=O)O)C(=O)N[C@@H](Cc1ccccc1)C(=O)N[C@H](C(=O)N[C@@H](CCC(=O)O)C(=O)N[C@@H](Cc1c[nH]c2ccccc12)C(=O)N[C@@H](CC(C)C)C(=O)N[C@@H](CCCCN)C(=O)N[C@@H](CC(N)=O)C(=O)NCC(=O)NCC(=O)N1CCC[C@H]1C(=O)N[C@@H](CO)C(=O)N[C@@H](CO)C(=O)NCC(=O)N[C@@H](C)C(=O)N1CCC[C@H]1C(=O)N1CCC[C@H]1C(=O)N1CCC[C@H]1C(=O)N[C@@H](CO)C(N)=O)[C@@H](C)CC)C(=O)O
4610 ng·h/mL: AUC at 24 h [1]
active: Activity (Mus musculus [10]) | Activity (Mus musculus [11]) | Activity (Mus musculus [12]) | Activity (Mus musculus [13]) | Activity (Mus musculus [14]) Dde | Activity (Mus musculus [16]) | Activity (Mus musculus [19]) | Activity (Mus musculus [21]) | Activity (Mus musculus [22]) | Activity (Mus musculus [24]) | Activity (Mus musculus [25]) | Activity (Mus musculus [26])
Non-Toxic: Activity [2] | Activity [4] | Activity [6] | Activity [7] | Activity [8] | Activity [9] | Activity [18] | Activity [23]
132%: Activity [17]
4200 ng·h/mL: AUC(0-inf) [15]
28.7%: Activity (Mus musculus [20])
16.3%: Activity [3]
4 h: half-life [5]
